Data published in ChEMBL document CHEMBL1155552, “New hydroxypyrimidinone-containing sulfonamides as carbonic anhydrase inhibitors also acting as MMP inhibitors” (Bioorg Med Chem Lett, 2010).

Legend:
Carbonic anhydrase 9 = Carbonic anhydrase 9 (Homo sapiens, UniProt Q16790)
Description: Inhibition of human carbonic anhydrase 9

[1] = target: 72 kDa type IV collagenase (Homo sapiens) (UniProt P08253); assay: Inhibition of MMP2 at 30 uM
[2] = target: Matrix metalloproteinase-9 (Homo sapiens) (UniProt P14780); assay: Inhibition of MMP9 at 10 uM
[3] = target: T1, Matrilysin (Homo sapiens) (UniProt P09237); assay: Inhibition of MMP7 at 100 uM
T1 sequence (whole entry): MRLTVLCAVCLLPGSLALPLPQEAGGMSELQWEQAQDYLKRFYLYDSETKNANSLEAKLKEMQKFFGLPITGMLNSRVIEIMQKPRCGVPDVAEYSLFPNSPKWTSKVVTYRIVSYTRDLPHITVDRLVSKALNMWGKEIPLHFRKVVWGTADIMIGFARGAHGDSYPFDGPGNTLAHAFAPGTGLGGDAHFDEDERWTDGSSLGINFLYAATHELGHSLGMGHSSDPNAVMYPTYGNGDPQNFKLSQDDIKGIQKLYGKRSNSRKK

[4] = target: 72 kDa type IV collagenase (Homo sapiens) (UniProt P08253); assay: Inhibition of MMP2 at 100 uM
[5] = target: Matrix metalloproteinase-9 (Homo sapiens) (UniProt P14780); assay: Inhibition of MMP9 at 1 uM
[6] = target: Matrix metalloproteinase-14 (Homo sapiens) (UniProt P50281); assay: Inhibition of MMP14 at 100 uM
[7] = target: 72 kDa type IV collagenase (Homo sapiens) (UniProt P08253); assay: Inhibition of MMP2 at 3 uM
[8] = target: Matrix metalloproteinase-9 (Homo sapiens) (UniProt P14780); assay: Inhibition of MMP9 at 100 uM
Carbonic anhydrase 2 = Carbonic anhydrase 2 (Homo sapiens, UniProt P00918); assay: Inhibition of human carbonic anhydrase 2
[9] = target: 72 kDa type IV collagenase (Homo sapiens) (UniProt P08253); assay: Inhibition of MMP2 at 300 uM
[10] = target: 72 kDa type IV collagenase (Homo sapiens) (UniProt P08253); assay: Inhibition of MMP2 at 30 nM
[11] = target: Matrix metalloproteinase-9 (Homo sapiens) (UniProt P14780); assay: Inhibition of MMP9 at 30 nM
[12] = target: T1, Matrilysin (Homo sapiens); assay: Inhibition of MMP7 at 3 uM
[13] = target: Matrix metalloproteinase-9 (Homo sapiens) (UniProt P14780); assay: Inhibition of MMP9 at 3 uM
[14] = target: Matrix metalloproteinase-14 (Homo sapiens) (UniProt P50281); assay: Inhibition of MMP14 at 3 uM

Sequence of 72 kDa type IV collagenase (Homo sapiens) (P08253 110-660 limits assumed): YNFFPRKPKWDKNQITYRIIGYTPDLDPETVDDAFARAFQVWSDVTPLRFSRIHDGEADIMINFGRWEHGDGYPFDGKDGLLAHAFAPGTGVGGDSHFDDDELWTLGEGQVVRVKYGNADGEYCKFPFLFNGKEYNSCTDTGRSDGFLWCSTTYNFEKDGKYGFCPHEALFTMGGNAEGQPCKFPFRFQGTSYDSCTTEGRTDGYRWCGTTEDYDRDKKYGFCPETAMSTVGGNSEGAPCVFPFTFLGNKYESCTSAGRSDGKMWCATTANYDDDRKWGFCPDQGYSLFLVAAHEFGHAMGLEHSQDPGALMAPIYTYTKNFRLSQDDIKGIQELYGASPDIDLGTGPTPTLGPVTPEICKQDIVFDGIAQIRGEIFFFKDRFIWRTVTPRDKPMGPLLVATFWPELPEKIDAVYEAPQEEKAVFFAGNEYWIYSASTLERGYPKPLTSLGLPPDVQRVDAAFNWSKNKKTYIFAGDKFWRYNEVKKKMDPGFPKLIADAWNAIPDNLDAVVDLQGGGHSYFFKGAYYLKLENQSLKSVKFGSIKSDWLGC
Sequence of Matrix metalloproteinase-9 (Homo sapiens) (P14780 whole entry): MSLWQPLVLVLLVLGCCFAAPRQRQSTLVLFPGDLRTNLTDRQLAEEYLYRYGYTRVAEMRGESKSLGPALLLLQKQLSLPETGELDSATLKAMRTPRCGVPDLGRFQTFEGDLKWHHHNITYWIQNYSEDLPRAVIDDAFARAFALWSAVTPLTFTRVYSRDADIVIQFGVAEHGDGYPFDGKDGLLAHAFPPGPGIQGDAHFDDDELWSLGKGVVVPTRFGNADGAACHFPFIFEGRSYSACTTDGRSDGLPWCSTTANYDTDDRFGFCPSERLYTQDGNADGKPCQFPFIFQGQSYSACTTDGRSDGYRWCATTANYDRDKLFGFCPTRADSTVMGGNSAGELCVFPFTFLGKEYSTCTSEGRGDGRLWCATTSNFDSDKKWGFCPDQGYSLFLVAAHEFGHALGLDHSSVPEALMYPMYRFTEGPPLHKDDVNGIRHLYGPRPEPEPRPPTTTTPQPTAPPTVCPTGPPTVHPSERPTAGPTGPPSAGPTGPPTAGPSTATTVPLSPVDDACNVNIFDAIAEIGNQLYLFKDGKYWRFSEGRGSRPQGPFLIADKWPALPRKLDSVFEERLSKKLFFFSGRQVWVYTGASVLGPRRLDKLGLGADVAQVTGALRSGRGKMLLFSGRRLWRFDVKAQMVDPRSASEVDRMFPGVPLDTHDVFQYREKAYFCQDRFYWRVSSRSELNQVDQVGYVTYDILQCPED

| SMILES | Ki (Carbonic anhydrase 9) [nM] | inhibition [3] [%] | inhibition [4] [%] | inhibition [6] [%] | inhibition [7] [%] | inhibition [8] [%] | inhibition [12] [%] | inhibition [13] [%] | further results |
| --- | --- | --- | --- | --- | --- | --- | --- | --- | --- |
| NS(=O)(=O)c1ccc(CCNc2ccn(O)c(=O)n2)cc1 | – | 38 | 86 | 48 | 7.4 | 67 | – | – | inhibition [1]: 19.6%; inhibition [2]: 9%; inhibition [5]: 6% |
| NCCCCCNc1ccn(O)c(=O)n1 | – | 30 | 24 | 42 | 9 | 23 | 1 | 3 | inhibition [14]: 3% |

More lines, main results first:

| Ki (Carbonic anhydrase 9) [nM] | inhibition [3] [%] | inhibition [4] [%] | inhibition [6] [%] | inhibition [7] [%] | inhibition [8] [%] | inhibition [12] [%] | inhibition [13] [%] | SMILES | further results |
| --- | --- | --- | --- | --- | --- | --- | --- | --- | --- |
| 4.1 | – | – | – | – | – | – | – | NS(=O)(=O)c1ccc(CCNC(=O)CCCCCNc2ccn(O)c(=O)n2)cc1 | – |
| > 1000 | – | – | – | – | – | – | – | COC(=O)CCCCCNc1ccn(O)c(=O)n1 | Ki (Carbonic anhydrase 2): 270000 nM |
| 3.4 | – | – | – | – | – | – | – | NS(=O)(=O)c1ccc(NC(=O)CCCNc2ccn(O)c(=O)n2)cc1 | – |
| – | 29 | – | 28 | 22 | 26 | 9 | 6 | NCCCCNc1ccn(O)c(=O)n1 | inhibition [9]: 88%; inhibition [10]: 30%; inhibition [11]: 1% |
